# According to patent US6913900B2, “Plasma prekallikrein activation and kallikrein production assay” (Nippon Zoki Pharmaceutical Co., Ltd., priority 2001, dated 2005):
# “Also recorded” adds a separate entry of the source. Like-named read-outs stand apart in the source and are kept apart here.
# Assays:
# [1] = test system: prekallikrein activating factor (PK activation); assay: Inhibition profile of PK activation (prekallikrein activation assay, kallikrein substrate S-2302, O.D. 405 nm); format: biochemical, human
# Description: In embodiments of the invention the reaction time may be fixed or “set.” The reaction time can be “set” by stopping the production of kallikrein, for example, by adding a prekallikrein activation inhibitor to the system of the present invention after a desired reaction time. Also, by adding a coloring or fluorescent synthetic substrate to the reaction system from the start or beginning, the produced amount of kallikrein (coloring or fluorescent intensity) may be observed at different lapses of time. […] When the reaction is stopped, the produced kallikrein can be quantitatively determined using an enzymatic activity of kallikrein as a target, for example, by applying a substrate to kallikrein.
# When the reaction is stopped, the produced plasma kallikrein can be determined using an enzymatic activity of the plasma kallikrein as a target by utilizing a substrate to the plasma kallikrein.
# (§1) Assays were performed in HEPES buffered saline (HBS) (10 mM Hepes, 137 mM NaCl, 4 mM KCl, 11 mM D-glucose, and 0.5 mg/ml RIA grade bovine serum albumin, pH 7.4), with a kallikrein specific substrate (0.6 mM S-2302). For assays using the cell-free system, 96 well disposable polystyrene microtiter plates (Dynatech Laboratories, Chantilly, Va.) were used. These microtiter plates were pretreated with 1% polyethylene glycol (Aquacide III, Calbiochem, Calif.) in HBS for two hours to prevent adsorption of proteins to polystyrene. The absorbance (O.D. at 405 nm or optical density at 405 nm) was monitored at room temperature on a Molecular Devices (Sunnyvale, Calif.) THERMOmax microplate reader. Just prior to the assay all the proteins were treated with 2.0 mM (4-amidinophenyl)methanesulfonyl fluoride (APMSF) for 15 minutes at pH 5.5, after which they were diluted 1:100 with HBS and incubated for 45 minutes to allow for the decomposition of any unreacted APMSF at the neutral pH. The proteins were treated with APMSF before use and were inactivated for the sake of safety.
# [2] = test system: HSP 90-dependent prekallikrein activation; assay: HSP 90-dependent prekallikrein activation (HSP 90, HK, zinc, PK, S-2302); format: biochemical, human; conditions: purified HSP 90 activator, HK and zinc present
# Procedure: as §1
# HSP 90 was confirmed as a prekallikrein activator, which was functionally indistinguishable from the cytosolic extract (FIG. 2). A HUVEC activator system was functionally effective as well (FIG. 1). […] The incubation mixture used is as follows: […]
# [3] = test system: activation of prekallikrein in the presence of phosphate and zinc ions; assay: Prekallikrein activation by phosphate ion (PBS, zinc, HK, PK, S-2302); format: biochemical; conditions: phosphate ion activator, no FXIIa, HUVEC or HSP 90
# Procedure: as §1, with “safety. […]” for “safety.”
molecule,measurement,setting,value
C[C@H](CS)C(=O)N1CCC[C@H]1C(=O)O [Captopril],inhibition of the prekallikrein activator in this system (in words),[1],good inhibitors
same,% inhibition of PK activation,[1]; inhibitor concentration 10 mM,97.9%
N[C@@H](CS)C(=O)O [Cysteine],% inhibition of PK activation,[1]; inhibitor concentration 10 mM,59.6%
O[C@@H](CS)[C@@H](O)CS [DTT],% inhibition of PK activation,[1]; inhibitor concentration 10 mM,69.1%
O=C(O)CN(CCN(CC(=O)O)CC(=O)O)CC(=O)O [EDTA],% inhibition of PK activation,[1],85.4%
same,inhibition of the prekallikrein activator in this system (in words),[1],good inhibitors
N[C@@H](CCC(=O)N[C@@H](CS)C(=O)NCC(=O)O)C(=O)O [Glutathione],% inhibition of PK activation,[1]; inhibitor concentration 100 μM,18.6%
[Cl][Hg][Cl] [HgCl2],inhibition of the prekallikrein activator in this system (in words),[1],good inhibitors
same,% inhibition of PK activation,[1]; inhibitor concentration 1 mM,98%
CC(C)Cc1ccc(C(C)C(=O)O)cc1 (stereo not shown) [Ibuprofen],inhibition of HSP 90-dependent prekallikrein activation (in words),[2],inhibited by Ibuprofen dose-dependently
same,inhibition of prekallikrein activation in the presence of phosphate and zinc ions (in words),[3],inhibited by Ibuprofen dose-dependently
NC(=O)CI [Iodoacetamide],% inhibition of PK activation,[1]; inhibitor concentration 10 mM,7%
OCCS [Mercaptoethanol],inhibition of the prekallikrein activator in this system (in words),[1],good inhibitors
same,% inhibition of PK activation,[1]; inhibitor concentration 5%,85.5%
Aprotinin,inhibition of the prekallikrein activator in this system (in words),[1],good inhibitors
same,% inhibition of PK activation,[1]; inhibitor concentration 100 μM,96.4%
Corn Trypsin Inhibitor,inhibition of HSP 90-dependent prekallikrein activation (in words),[2],inhibited by CTI
same,% inhibition of PK activation,[1]; inhibitor concentration 10 μM,94.3%
same,inhibition of the prekallikrein activator in this system (in words),[1]; listed as CTI,good inhibitors; also recorded: could be inhibited by CTI
Cystatin,% inhibition of PK activation,[1]; inhibitor concentration 10 μg/ml,4.5%
"SBTI: soybean trypsin inhibitor (SBTI) (protein, UniProt P01070 25-205, looked up) Trypsin inhibitor A: DFVLDNEGNPLENGGTYYILSDITAFGGIRAAPTGNERCPLTVVQSRNELDKGIGTIISSPYRIRFIAEGHPLSLKFDSFAVIMLCVGIPTEWSVVEDLPEGPAVKIGENKDAMDGWFRLERVSDDEFNNYKLVFCPQQAEDDKCGDIGISIDHDDGTRRLVVSKNKPLVVQFQKLDKESL",inhibition of the prekallikrein activator in this system (in words),[1],good inhibitors
same,% inhibition of PK activation,[1]; inhibitor concentration 50 μg/ml,98.6%
